Reference: patent US10189798B2, “Antimicrobial compounds, methods of making the same and articles comprising them” (MEDICAL TECHNOLOGY RESEARCH INC, priority 2014, dated 2019)

Assays:
[1] = tested on: Staphylococcus aureus ATCC6538; experiment: Zone of inhibition (ZOI) assay; format: cell-based; conditions: for antimicrobial activity, qualitative: ZOI assay, S. aureus ATCC6538
Description: The antimicrobial activity of the antimicrobial silver s-triazine compounds was verified by standard zone of inhibition (ZOI) assay known to those skilled in the art. Briefly, in this assay, samples were placed on plates with proprietary agar formula (similar to Mueller Hinton Agar (MHA)) that were inoculated with bacteria and incubated at 37° C. overnight. If antimicrobial activity in the sample was present, it formed a clear zone around the edges. As negative control, the samples without the silver active compound were used. For primary screening of antimicrobial activity, the gram positive bacteria Staphylococcus aureus ATCC6538 was employed in the assay. To examine broad spectrum antimicrobial activity, various different types of organisms including gram negative Pseudomonas aeruginosa ATCC9027, Methicillin-Resistance Staphylococcus aureus (MRSA) and Vancomycin-Resistant Enterococci (VRE) could be employed. In investigating the broad spectrum activity, the ZOI assay is performed slightly differently. Instead of laying the samples on plates individually inoculated with different types of bacteria, the bacterial inoculums are streaked as parallel lines on one plate. After streaking the inoculum linearly, the samples are deposited as a continuous bead string in perpendicular direction to the streak lines. Evidence of antimicrobial activity in the sample is seen in the form of interruptions on both sides of the edges of the sample string.

[2] = Discoloration on direct sunlight exposure; format: physicochemical; conditions: for direct sunlight exposure withstood before any sign of discoloration: undiluted aqueous suspension, ~5500 ppm silver
Description: Silver-PDT powder (˜0.027 g) was transferred to the gel and hand-mixed to uniformity with a spatula to obtain clear to hazy gel. […] For DMCA, the tube was kept at ˜25° C. overnight for reaction completion. […] Considering that the amount of silver in the undiluted suspensions was ˜5500 ppm, the discoloration resistance can be considered extraordinary. In contrast, the undiluted suspension of Ag-PDT withstood 0.5 h of sunlight exposure before discoloration was visible. […] A suspension of Ag-MIC was prepared according to Example 13. […] A 2″×2″ piece of cotton gauze was soaked in the clear solution, blotted with paper towel to remove excess and dried at 55° C. for 0.25 to 0.5 h. In the same clear solution prepared separately, a filter paper strip was immersed, shaken and then dried at 55° C. for 0.25 h-0.5 h. Both substrates with silver-MIC were exposed to direct sunlight. […] Thus, in both instances following substrate impregnation, Ag-MIC still maintained robust light discoloration resistance. […] On a clean glass slide, a small volume (˜0.25 ml) was spread with a transfer pipet and left in an oven at 55° C. to dry for 0.5 h. The theoretical amount of silver in the dried coating was estimated at ˜2700 ppm. […] Such coating composition could be useful in providing antimicrobial surfaces. […] Similar sized piece of each dressing was pouched in foil and steam sterilized. After cooling to room temperature the samples were examined for discoloration. None was observed. […] Even after 4 h of direct sunlight exposure, no discoloration of the Ag-PDT impregnated paper was observed. The approximate theoretical amount of silver in the impregnated paper strip was ˜8700 ppm.

[3] = Discoloration on table lamp light exposure; format: physicochemical; conditions: for time without discoloration under table lamp light: clear solution with ammonium hydroxide, ~5000 ppm silver, lamp at 12″
Description: Stock solutions (0.1M) of monosodium salts of DMCA, EIC and MIC were prepared. […] To accelerate anion exchange between sodium and silver cations, heating of liquids was carried out in microwave between ˜50° to 55° C. The tube contents were cooled and then to each tube neat ammonium hydroxide (0.1 ml) was added which caused the suspensions to clear for all three compounds. […] The theoretical content of silver in the clear solutions was ˜5000 ppm. To a 100 ml PP cup with stir bar, deionized water was added (13.2 ml).

[4] = water, 25° C.
[5] = Discoloration on heat exposure (55° C. / steam sterilization); format: physicochemical; conditions: 550 ppm silver
Description: The sterilization of any samples (devices or compositions) comprising antimicrobial silver s-triazine compounds was carried out by steam sterilization. By subjecting test samples to steam sterilization, one can ascertain the ability of the antimicrobial silver s-triazine compounds to withstand thermal stresses. […] Thus, the test samples experienced nearly 3.5 h of hostile temperature condition. […] Silver-PDT powder (˜0.027 g) was transferred to the gel and hand-mixed to uniformity with a spatula to obtain clear to hazy gel. […] Similar sized piece of each dressing was pouched in foil and steam sterilized. After cooling to room temperature the samples were examined for discoloration. None was observed.

[6] = Alginate sheet, Example 17, ~4500 ppm silver

| direct sunlight exposure withstood before any sign of discoloration [2] [h] | discoloration as suspension temperature increased during photo-exposure ([2]; diluted suspension ~1350 ppm silver, temperature ~50° C.) | direct sunlight exposure without discoloration ([2]; impregnated thin paper strip, ~8700 ppm silver) [h] | direct sunlight exposure required before signs of discoloration ([2]; suspension diluted with deionized water, ~1350 ppm silver, PP tube) | gel discoloration at 55° C. ([5]; carboxymethyl cellulose gel, short term exposure) | Compound | Zone width [1, 6] [mm] | antimicrobial activity, qualitative [1] | time without discoloration under table lamp light [3] [h] | aqueous solubility [4] [mg/L] | Zone width ([1]; Cotton gauze, Example 14) [mm] | Zone width ([1]; Filter paper, Example 14) [mm] | Zone width ([1]; Gel, Example 15, 550 ppm silver) [mm] | direct sunlight exposure without discoloration ([2]; impregnated cotton gauze, Example 14) [h] | direct sunlight exposure after which faint cream color registered ([2]; impregnated filter paper strip, Example 14) [h] | gel discoloration under table lamp light ([3]; Laponite gel, 550 ppm silver, overnight) | gel change at 55° C. ([5]; Laponite gel, 4 weeks) | gel discoloration in direct sunlight ([2]; carboxymethyl cellulose gel, 550 ppm silver, PP tubes) |
| --- | --- | --- | --- | --- | --- | --- | --- | --- | --- | --- | --- | --- | --- | --- | --- | --- | --- |
| 1.5 | – | – | – | – | CCn1c(=O)[n-]c(=O)[nH]c1=O.[Ag+] [Ag-EIC] | 8.5 | strong activity | 96 | 16.5 | – | – | – | – | – | – | – | – |
| 0.5 | no discoloration was seen | > 4 | over 4 h | did not show any gel discoloration | O=c1nc(-c2ccccc2)[nH]c(=O)[n-]1.[Ag+] [Ag-PDT] | 5.5 | strong activity | – | – | – | – | – | – | – | – | – | no discoloration of gel was seen for up to an hour |

| Compound | direct sunlight exposure withstood before any sign of discoloration [2] [h] | discoloration as suspension temperature increased during photo-exposure ([2]; diluted suspension ~1350 ppm silver, temperature ~50° C.) | direct sunlight exposure without discoloration ([2]; impregnated thin paper strip, ~8700 ppm silver) [h] | direct sunlight exposure required before signs of discoloration ([2]; suspension diluted with deionized water, ~1350 ppm silver, PP tube) | gel discoloration at 55° C. ([5]; carboxymethyl cellulose gel, short term exposure) | Zone width [1, 6] [mm] | antimicrobial activity, qualitative [1] | time without discoloration under table lamp light [3] [h] | aqueous solubility [4] [mg/L] | Zone width ([1]; Cotton gauze, Example 14) [mm] | Zone width ([1]; Filter paper, Example 14) [mm] | Zone width ([1]; Gel, Example 15, 550 ppm silver) [mm] | direct sunlight exposure without discoloration ([2]; impregnated cotton gauze, Example 14) [h] | direct sunlight exposure after which faint cream color registered ([2]; impregnated filter paper strip, Example 14) [h] | gel discoloration under table lamp light ([3]; Laponite gel, 550 ppm silver, overnight) | gel change at 55° C. ([5]; Laponite gel, 4 weeks) | gel discoloration in direct sunlight ([2]; carboxymethyl cellulose gel, 550 ppm silver, PP tubes) |
| --- | --- | --- | --- | --- | --- | --- | --- | --- | --- | --- | --- | --- | --- | --- | --- | --- | --- |
| Cn1c(=O)[n-]c(=O)[nH]c1=O.[Ag+] [Ag-MIC] | 1.5 | – | – | – | – | 9.5 | strong activity | 72 | 48 | 5.5 | 8.0 | 2.5 | > 3 | 1.5 | did not discolor | practically unchanged | – |
